Patent publication US10894777B2, “TG2 inhibitor piperazine compounds and uses thereof” (UNIVERSITY OF OTTAWA, priority 2016, dated 2021)

Assays:
SCC-13 cells = experiment: Matrigel invasion assay, SCC-13 cells; format: cell-based, human
Description: Invasion assay. Matrigel was diluted in 0.01 M Tris-HCl/0.7% NaCl, filter sterilized and 0.1 ml was used to coat individual BD BioCoat inserts (Millicell-PCF, 0.4 μm, 12 mm, PIHP01250). Cells (25,000) were plated in 100 μl in growth medium, supplemented with 1% FCS, in the upper chamber. The lower chamber contained growth medium supplemented with 10% FCS. After migration, the membranes were harvested and excess cells were removed from the upper membrane surface. The membrane was fixed in 4% paraformaldehyde, stained with 1 μg/m DAPI, and the underside of the membrane was photographed with an inverted fluorescent microscope and the number of cells counted.
Invasion assay. Matrigel (BD Biolabs) was diluted into 2 mL of 0.01 M Tris-HC/0.7% NaCl to a final concentration of 300 μg/mL, filter sterilized and 0.1 mL was added per BD BioCoat cell insert. After 2 hours, near-confluent SCC13-TG2-shRNA2 and SCC13-Control-shRNA cells were harvested and 25,000 cells were plated in 100 μL of growth media containing 1% FCS atop the Matrigel layer. Growth medium containing 10% FCS was added to the bottom chamber followed by an overnight incubation at 37° C. The following day a cotton swab was used to remove cells from the upper side of the membrane, the membrane was rinsed with phosphate-buffered saline, fixed with 4% paraformaldehyde for 10 min, washed again, and stained with 1 μg/mL DAPI for 10 min. The underside of the membrane was viewed with an inverted fluorescent microscope and nuclei were counted.
Invasion assay. Matrigel (BD Biolabs) was diluted into 2 ml of 0.01 M Tris-HC/0.7% NaCl to a final concentration of 300 μg/ml, filter sterilized, and 0.1 ml was added per BD BioCoat cell insert (8 microns pore size, surface area 0.3 cm2). After 2 h, near-confluent SCC-13 cells were harvested and 25,000 cells were plated in 100 μl of growth media containing 1% FCS atop the Matrigel layer. Growth medium containing 10% FCS was added to the bottom chamber followed by an overnight incubation at 37° C. The following day a cotton swab was used to remove cells from the upper side of the membrane, the membrane was rinsed with PBS, fixed with 4% paraformaldehyde, washed again, and stained with 1 μg/ml DAPI for 10 min. The underside of the membrane was viewed with an inverted fluorescent microscope, and nuclei were counted (Adhikary, G. et al., PLoS One 8:e84324, 2013).

R580A-TG2 = molecular target: T1, R580A-TG2 (Homo sapiens, UniProt P21980, R580A); experiment: In situ transamidating assay, SH-SY5Y cells stably overexpressing R580A-TG2; format: cell-based; conditions: 10 μM, 16-20 h, no calcium stimulation
T1 construct: expressed in transfected cells
T1 sequence (P21980 1-687 R580A): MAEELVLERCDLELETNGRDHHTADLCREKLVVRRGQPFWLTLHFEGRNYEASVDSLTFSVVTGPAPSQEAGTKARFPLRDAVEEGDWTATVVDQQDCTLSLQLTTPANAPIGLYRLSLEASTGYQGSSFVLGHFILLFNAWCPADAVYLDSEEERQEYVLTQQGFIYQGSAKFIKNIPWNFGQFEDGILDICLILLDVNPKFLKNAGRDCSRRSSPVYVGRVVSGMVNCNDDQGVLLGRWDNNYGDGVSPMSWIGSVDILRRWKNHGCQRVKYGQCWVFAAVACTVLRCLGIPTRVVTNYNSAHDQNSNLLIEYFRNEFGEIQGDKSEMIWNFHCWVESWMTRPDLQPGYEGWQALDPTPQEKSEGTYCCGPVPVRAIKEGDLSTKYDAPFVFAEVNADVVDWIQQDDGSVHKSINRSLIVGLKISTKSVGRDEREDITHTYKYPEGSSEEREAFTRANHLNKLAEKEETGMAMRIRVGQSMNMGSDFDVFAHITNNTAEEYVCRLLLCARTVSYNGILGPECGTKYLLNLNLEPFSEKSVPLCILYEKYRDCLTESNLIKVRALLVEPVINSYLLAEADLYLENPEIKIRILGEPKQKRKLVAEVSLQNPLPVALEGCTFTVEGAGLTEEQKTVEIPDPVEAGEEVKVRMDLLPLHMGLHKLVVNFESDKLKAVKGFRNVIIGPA
Description: These inhibitors were then tested in cell culture models for their efficiency in inhibiting in situ transamidating activity. […] For these studies we used SH-SY5Y neuroblastoma cells stably overexpressing R580A-TG2.
In situ transglutaminase assay. In situ transamidating activity measurement was conducted as described previously (Gundemir, S. and Johnson, G. V., PLoS ONE 4(7):e6123, 2009) with slight modifications. Briefly, 24 h after transfection of HEK 293A cells, normal growth media was changed to fresh growth media with 5% FBS containing given amount of ionomycin (0-1.5 μM) and 0.1 mM 5-(biotinamido)pentylamine (BAP) (Pierce). 3 h later, cells were collected in media, pelleted, washed once with PBS and resuspended in homogenization buffer (50 mM Tris-Cl, pH: 7.5, 150 mM NaCl, 1 mM EDTA), sonicated on ice. In a high protein binding 96-well plate (Falcon), 10 μg of protein was loaded in a total of 50 μL homogenization buffer and the plate was incubated at 4° C. overnight. The next day, 200 μL of blocking buffer (5% BSA, 0.01% Tween 20 in borate saline [100 mM boric acid, 20 mM Na-borate and 0.76 mM NaCl]) was added to each sample and the plate was incubated at 37° C. for 1 h. Each well was then rinsed 3 times with rinsing buffer (1% BSA, 0.01% Tween 20 in borate saline) and incubated with 1 μg/μL Horseradish peroxidase conjugated neutravidin (Pierce) in a total of 100 μL rinsing buffer at room temperature for 1 h. The samples were washed 4 times with rinsing buffer, and peroxidase reaction was conducted in the dark in 200 μL of OPD buffer (50 mL of 0.1 M Na2HPO4, 50 mM citric acid, 1 tablet o-phenylenediamine (Sigma Aldrich), 0.0006% H2O2). After 20 minutes, the reaction was stopped by addition of 50 μL of 1 M sulfuric acid and read at 493 nm wavelength.

SMILES | matrigel invasion (SCC-13 cells; 20 μM, 24 h) | resting (basal) transamidating activity of R580A-TG2 (R580A-TG2) | matrigel invasion (SCC-13 cells; 20 μM pretreatment 1 hour, 24 hours) | invasion (SCC-13 cells; 20 μM pretreatment 2 h, 30 h)
C=CC(=O)NCCCC[C@H](NC(=O)OCc1ccccc1)C(=O)N1CCN(C(=O)c2cc3ccc(O)cc3oc2=O)CC1 [VA5, (S)-Benzyl(6-acrylamido-1-(4-(7-hydroxy-2-oxo-2H-chromene-3-carbonyl)piperazin-1-yl)-1-oxohexan-2-yl)carbamate] | inhibited | inhibit resting transamidating activity of R580A-TG2 |  | 
C=CC(=O)NCCCC[C@H](NC(=O)OCc1ccccc1)C(=O)N1CCN(S(=O)(=O)c2cccc3c(N(C)C)cccc23)CC1 [VA4, (S)-benzyl(6-acrylamido-1-(4-((5-(dimethylamino)naphthalen-1-yl)sulfonyl)piperazin-1-yl)-1-oxohexan-2-yl)carbamate] | inhibited | inhibit resting transamidating activity of R580A-TG2 |  | 
C=CC(=O)NCCCC[C@H](NC(=O)OCc1ccccc1)C(=O)NCCOCCOCCNS(=O)(=O)c1cccc2c(N(C)C)cccc12 [NC9] | inhibited | inhibit resting transamidating activity of R580A-TG2 | reduced matrigel invasion | reduced
